Measured values from ChEMBL document CHEMBL1131670, “N-hydroxyurea and hydroxamic acid inhibitors of cyclooxygenase and 5-lipoxygenase” (Bioorg Med Chem Lett, 1999).

Columns and labels:
[1] = molecular target: T1, Polyunsaturated fatty acid 5-lipoxygenase (Rattus norvegicus) (UniProt P12527); assay: Inhibitory activity against 5-lipoxygenase (5-LO) using broken rat […] leukemia cells (RBL-1)at 10 uM; assay type: cell-based
T1 sequence (whole entry): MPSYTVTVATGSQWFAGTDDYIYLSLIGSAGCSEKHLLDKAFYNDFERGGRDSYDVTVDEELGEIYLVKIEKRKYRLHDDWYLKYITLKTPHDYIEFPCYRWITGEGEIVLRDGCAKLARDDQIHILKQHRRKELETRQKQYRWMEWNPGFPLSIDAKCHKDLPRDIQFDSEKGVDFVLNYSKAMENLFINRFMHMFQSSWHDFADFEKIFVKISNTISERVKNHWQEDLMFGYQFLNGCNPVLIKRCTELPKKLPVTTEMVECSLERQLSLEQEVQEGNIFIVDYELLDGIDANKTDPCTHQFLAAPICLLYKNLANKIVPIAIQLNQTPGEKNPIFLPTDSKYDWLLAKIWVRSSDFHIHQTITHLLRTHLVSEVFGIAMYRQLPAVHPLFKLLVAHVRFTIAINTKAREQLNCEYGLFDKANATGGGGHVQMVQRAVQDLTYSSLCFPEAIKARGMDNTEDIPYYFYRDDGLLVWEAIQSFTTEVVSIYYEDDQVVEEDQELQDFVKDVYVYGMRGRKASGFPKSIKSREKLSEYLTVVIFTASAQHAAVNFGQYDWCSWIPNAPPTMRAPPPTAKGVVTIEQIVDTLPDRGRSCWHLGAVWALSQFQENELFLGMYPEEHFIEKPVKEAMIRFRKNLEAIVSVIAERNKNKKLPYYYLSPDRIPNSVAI

Cyclooxygenase [2] = molecular target: T2, Cyclooxygenase (Rattus norvegicus, UniProt P35355+Q63921); assay: Inhibitory activity against cyclooxygenase (COX) in intact rat […] leukemia cells (RBL-1); assay type: cell-based
T2 sequence (P35355 whole entry): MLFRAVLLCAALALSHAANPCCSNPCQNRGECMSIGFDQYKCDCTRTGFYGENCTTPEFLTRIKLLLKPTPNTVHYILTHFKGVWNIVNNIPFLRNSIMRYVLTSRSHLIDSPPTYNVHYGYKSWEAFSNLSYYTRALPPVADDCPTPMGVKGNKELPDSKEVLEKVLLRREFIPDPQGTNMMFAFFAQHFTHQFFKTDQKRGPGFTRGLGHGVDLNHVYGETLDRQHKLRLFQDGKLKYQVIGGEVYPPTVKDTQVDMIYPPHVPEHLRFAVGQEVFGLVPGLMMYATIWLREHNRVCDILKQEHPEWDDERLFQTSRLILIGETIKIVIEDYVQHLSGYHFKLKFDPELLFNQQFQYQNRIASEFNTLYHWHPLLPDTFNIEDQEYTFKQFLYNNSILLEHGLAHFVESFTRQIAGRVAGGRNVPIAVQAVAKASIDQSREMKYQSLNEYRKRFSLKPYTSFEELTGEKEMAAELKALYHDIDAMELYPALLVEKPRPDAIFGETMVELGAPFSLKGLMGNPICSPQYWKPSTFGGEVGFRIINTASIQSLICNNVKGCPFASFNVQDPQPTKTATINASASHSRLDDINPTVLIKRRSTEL
T2 sequence (Q63921 whole entry): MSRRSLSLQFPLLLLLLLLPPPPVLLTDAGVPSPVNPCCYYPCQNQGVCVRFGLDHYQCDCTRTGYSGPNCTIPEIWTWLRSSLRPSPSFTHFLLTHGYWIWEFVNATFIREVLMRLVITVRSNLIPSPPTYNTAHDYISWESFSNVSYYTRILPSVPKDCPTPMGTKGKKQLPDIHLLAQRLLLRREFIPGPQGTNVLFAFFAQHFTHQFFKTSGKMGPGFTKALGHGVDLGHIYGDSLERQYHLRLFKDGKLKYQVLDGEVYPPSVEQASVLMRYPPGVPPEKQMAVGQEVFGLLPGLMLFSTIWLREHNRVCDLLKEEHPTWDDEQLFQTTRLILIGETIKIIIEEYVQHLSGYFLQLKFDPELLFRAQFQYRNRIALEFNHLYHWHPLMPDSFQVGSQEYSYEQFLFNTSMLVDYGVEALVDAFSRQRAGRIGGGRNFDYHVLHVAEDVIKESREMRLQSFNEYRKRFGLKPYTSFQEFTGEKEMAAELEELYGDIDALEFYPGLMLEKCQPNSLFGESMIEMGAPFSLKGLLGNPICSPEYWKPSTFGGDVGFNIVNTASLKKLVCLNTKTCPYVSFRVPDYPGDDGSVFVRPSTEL

[3] = molecular target: T3, Prostaglandin G/H synthase 1 (Ovis aries) (UniProt P05979); assay: Inhibitory activity against Cyclooxygenase using sheep seminal vesicle (SSV) enzyme (COX-1) at 10 uM; assay type: tissue-based
T3 sequence (whole entry): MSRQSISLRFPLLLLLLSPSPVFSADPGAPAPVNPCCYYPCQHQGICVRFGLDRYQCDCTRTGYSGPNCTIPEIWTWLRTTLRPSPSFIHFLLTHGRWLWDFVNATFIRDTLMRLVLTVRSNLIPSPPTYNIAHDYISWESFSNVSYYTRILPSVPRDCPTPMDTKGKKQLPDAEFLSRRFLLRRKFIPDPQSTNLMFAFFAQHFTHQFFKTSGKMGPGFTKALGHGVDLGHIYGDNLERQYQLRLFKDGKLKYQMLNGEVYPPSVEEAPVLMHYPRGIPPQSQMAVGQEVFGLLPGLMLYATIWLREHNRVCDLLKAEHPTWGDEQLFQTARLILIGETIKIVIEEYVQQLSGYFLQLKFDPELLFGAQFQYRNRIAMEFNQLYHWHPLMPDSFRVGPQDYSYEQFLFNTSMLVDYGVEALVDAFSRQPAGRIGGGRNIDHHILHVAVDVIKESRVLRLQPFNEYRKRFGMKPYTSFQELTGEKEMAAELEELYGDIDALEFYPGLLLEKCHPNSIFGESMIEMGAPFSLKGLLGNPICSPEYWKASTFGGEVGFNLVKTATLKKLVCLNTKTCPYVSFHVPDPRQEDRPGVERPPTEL

[4] = molecular target: T3, Prostaglandin G/H synthase 1 (Ovis aries); assay: Inhibitory activity against Cyclooxygenase using sheep seminal vesicle (SSV) enzyme (COX-1)at 10 uM; assay type: tissue-based
Cyclooxygenase [5] = molecular target: T2, Cyclooxygenase; assay: Inhibitory activity against Cyclooxygenase (COX) using broken rat […] leukemia cells (RBL-1); assay type: cell-based
[6] = molecular target: T1, Polyunsaturated fatty acid 5-lipoxygenase (Rattus norvegicus); assay: Inhibitory activity against 5-lipoxygenase (5-LO) using broken rat […] leukemia cells (RBL-1) at 10 uM; assay type: cell-based
[7] = molecular target: Cyclooxygenase (Rattus norvegicus) (UniProt P35355+Q63921); assay: Inhibitory activity against Cyclooxygenase (COX) using broken rat […] leukemia cells (RBL-1) at 10 uM; assay type: cell-based

Row | SMILES | inhibition [1] [%] | IC50 (Cyclooxygenase [2]) [nM] | inhibition [3] [%] | inhibition [4] [%] | IC50 (Cyclooxygenase [5]) [nM] | inhibition [6] [%] | inhibition [7] [%]
1 | COC(=O)N(O)CC#Cc1cc(-c2ccc(C)cc2)n(-c2ccc(OC)cc2)n1 | 100 | 280 | 74 |  |  |  | 
2 | CCCNC(=O)N(O)C(C)C#Cc1cc(-c2ccc(Cl)cc2)n(-c2ccc(OC)cc2)n1 (stereo unspecified) | 82 |  |  | 14 |  |  | 
3 | CCOC(=O)C(=O)N(O)C(C)C#Cc1cc(-c2ccc(C)cc2)n(-c2ccc(OC)cc2)n1 (stereo unspecified) | 71 | 3400 | 66 |  |  |  | 
4 | COc1ccc(-n2nc(C#CC(C(C)C)N(O)C(N)=O)cc2-c2ccc(C)cc2)cc1 (stereo unspecified) |  | 1200 | 29 |  | 4600 |  | 
5 | COc1ccc(-n2nc(C#CCN(O)C(=O)c3ccncc3)cc2-c2ccc(C)cc2)cc1 | 89 | 5500 | 17 |  |  |  | 
6 | CCC(C#Cc1cc(-c2ccc(C)cc2)n(-c2ccc(OC)cc2)n1)N(O)C(N)=O (stereo unspecified) |  | 2100 | 22 |  | 15900 |  | 
7 | COc1ccc(-n2nc(C#CC(C)N(O)C(=O)C(F)(F)F)cc2-c2ccc(C)cc2)cc1 (stereo unspecified) |  | 190 |  |  | 50 |  | 
8 | CCC(C#Cc1cc(-c2ccc(Cl)cc2)n(-c2ccc(OC)cc2)n1)N(O)C(N)=O (stereo unspecified) | 91 | 70400 |  | 0 |  |  | 
9 | CCc1ccc(-c2cc(C#CC(C)N(O)C(=O)OC)nn2-c2ccc(OC)cc2)cc1 (stereo unspecified) | 78 | 750 | 21 |  |  |  | 
10 | COc1ccc(-n2nc(C#CC(C)N(O)C(=O)N3CCOCC3)cc2-c2ccc(Cl)cc2)cc1 (stereo unspecified) |  | 1600 |  | 14 |  |  | 
11 | CCc1ccc(-c2cc(C#CC(C)N(O)C(=O)C(C)C)nn2-c2ccc(OC)cc2)cc1 (stereo unspecified) |  | 180 |  |  |  | 93 | 
12 | COC(=O)N(O)C(C)C#Cc1cc(-c2ccc(C)cc2)n(-c2ccc(OC)cc2)n1 (stereo unspecified) |  | 490 |  |  | 140 |  | 
13 | COc1ccc(-n2nc(C#CC(C)N(O)C(=O)c3ccccc3)cc2-c2ccc(Cl)cc2)cc1 (stereo unspecified) |  | 5500 | 5 |  | 14900 |  | 
14 | CCc1ccc(-c2cc(C#CC(C)N(O)C(C)=O)nn2-c2ccc(OC)cc2)cc1 (stereo unspecified) |  | 340 |  |  | 60 |  | 
15 | CCc1ccc(-c2cc(C#CC(C)N(O)C(=O)CCl)nn2-c2ccc(OC)cc2)cc1 (stereo unspecified) | 100 | 1700 |  |  |  |  | 86
16 | CCOC(=O)CCC(=O)N(O)C(C)C#Cc1cc(-c2ccc(CC)cc2)n(-c2ccc(OC)cc2)n1 (stereo unspecified) |  | 14000 | 3 |  |  | 97 | 52
17 | COC(=O)N(O)C(C)C#Cc1cc(-c2ccc(Cl)cc2)n(-c2ccc(OC)cc2)n1 (stereo unspecified) |  | 290 |  |  |  | 77 | 84
18 | CCOC(=O)CCC(=O)N(O)C(C)C#Cc1cc(-c2ccc(C)cc2)n(-c2ccc(OC)cc2)n1 (stereo unspecified) | 97 | 10000 |  |  |  |  | 
19 | COc1ccc(-n2nc(C#CCN(O)C(N)=O)cc2-c2ccc(Cl)cc2)cc1 |  |  | 9 |  |  |  | 0
20 | COc1ccc(-n2nc(C#CC(C)N(O)C(N)=O)cc2-c2ccc(Cl)cc2)cc1 (stereo unspecified) |  | 6200 |  |  |  |  | 0
21 | CCC(C#Cc1cc(-c2ccc(C)cc2)n(-c2ccc(OC)cc2)n1)N(O)C(C)=O (stereo unspecified) |  | 220 |  |  | 10 |  | 
22 | COc1ccc(-n2nc(C#CC(C)N(O)C(=O)C(C)C)cc2-c2ccc(C)cc2)cc1 (stereo unspecified) |  | 90 |  |  | 40 |  | 
23 | COc1ccc(-n2nc(C#CC(C)N(O)C(=O)N3CCCCC3)cc2-c2ccc(Cl)cc2)cc1 (stereo unspecified) | 76 |  |  | 44 |  |  | 
24 | COc1ccc(-n2nc(C#CC(C)N(O)C(=O)c3cccnc3)cc2-c2ccc(C)cc2)cc1 (stereo unspecified) |  | 11500 |  |  |  | 88 | 54
25 | COc1ccc(-n2nc(C#CCN(O)C(=O)c3ccccc3)cc2-c2ccc(C)cc2)cc1 | 100 |  | 52 |  |  |  | 
26 | COc1ccc(-n2nc(C#CC(C)N(O)C(N)=O)cc2-c2ccc(C)cc2)cc1 (stereo unspecified) |  | 1400 |  | 10 | 9400 |  | 
27 | COc1ccc(-n2nc(C#CC(C)N(O)C(=O)c3ccco3)cc2-c2ccc(C)cc2)cc1 (stereo unspecified) |  |  |  |  |  | 70 | 61
28 | COc1ccc(-n2nc(C#CC(C)N(O)C(C)=O)cc2-c2ccc(C)cc2)cc1 (stereo unspecified) |  | 110 |  |  | 10 |  | 
29 | CCC(=O)N(O)CC#Cc1cc(-c2ccc(C)cc2)n(-c2ccc(OC)cc2)n1 | 100 | 60 | 79 |  |  |  | 
30 | COc1ccc(-n2nc(C#CC(C(C)C)N(O)C(N)=O)cc2-c2ccc(Cl)cc2)cc1 (stereo unspecified) | 90 | 14500 | 38 |  |  |  | 
